Measurements as given in patent US6897319B2, “Useful aroyl pyrrole heteroaryl methanones and methanols” (Ortho-McNeil Pharmaceutical, Inc., priority 2001, dated 2005).

Tests used:
[1] = system: voltage-gated sodium channels; test: Fluorometric membrane potential assay in SK-N-SH cells (veratridine stimulus, FLIPR); assay type: cell-based; details: 10 μM compound, 5 μM veratridine
Experimental: Screening Assay for Voltage-Gated Sodium Channel Antagonists Fluorometric Membrane Potential Assay
SK-N-SH neuroblastoma cells were maintained in a propagation medium containing modified Eagle's medium and 10% (v/v) fetal bovine serum and were incubated at 37° C. in a 5% CO2 atmosphere. Only cells with fewer than 20 passages were used in each assay. All drugs were prepared in DMSO, and the final concentration of solvent was less than 0.1% (v/v). Veratridine, a toxin that selectively promotes persistent activation of voltage-gated sodium channels, served as the stimulus. 24 hr prior to testing, 1×10^5 cells/well were plated into 96-well plates specifically designed for use in a fluorescent imaging plate reader (FLIPR) (Molecular Devices, Sunnyvale, Calif.)
Prior to screening, monolayers of cells were loaded with 100 μL/well of a proprietary voltage-sensitive dye (Molecular Devices, Sunnyvale, Calif.) for 30 min at 37° C. After this incubation period, the cells were stimulated with 5 μM veratridine in the presence or absence of investigational compounds (prepared at a final concentration of 10 μM in DMSO). A sample containing 5 μM veratridine and 10 μM tetrodotoxin accounted for nonspecific activity. The fluorescence was monitored by the FLIPR (Molecular Devices) from 10 sec prior to drug addition (50 μL) to 170 sec after drug addition at 25° C. During sodium channel activation, the cells depolarize and the dye associates with cell membranes, resulting in increased fluorescence.

[2] = system: carrageenan-induced thermal hyperalgesia; test: Carrageenan Paw Hyperalgesia Test; assay type: in vivo; details: mouse, orally 30 mg per Kg, 90 minutes following oral dosing
From the text: Procedure for Testing Hyperalgesic Effect
The procedure used to detect the antihyperalgesic activity of a compound of the present invention for which there is a good correlation with human efficacy is the Carrageenan Paw Hyperalgesia Test (as described in Sammons, et al., Brain Research, 2000, 876, 48-54).
Male, CD-1 mice (Charles River Laboratories) weighing 22-30 g each at the time of testing are housed in a climate-controlled, virus free environment for at least 7 days prior to testing. Food and water are available ad libitum up to test time.
Test mice are […] by injecting an irritant (e.g., 0.02 mL of a 1.0% carrageenan solution in 0.9% saline) subcutaneously into the subplantar tissue of one of the hind paws to stimulate an acute inflammatory reaction. The response of the animal following carrageenan injection is subsequently evaluated at a fixed later time and verified to be hyperalgesic relative to a baseline response obtained immediately prior to carrageenan injection.
The mice were dosed orally with either Compound 1 dissolved in a suspension of 20% hydroxypropyl beta cyclodextrin in distilled water or with vehicle alone at a fixed time following carrageenan injection. […] Response latencies were subsequently evaluated at fixed times following oral dosing to assess reversal of hyperalgesia caused by treatment with Compound 1 as compared to vehicle treatment. […]

For Cn1cc(C(=O)c2ccncc2)cc1C(=O)c1ccc(Cl)cc1 [Cpd 1, [5-(4-Chlorobenzoyl)-1-methyl-1H-pyrrol-3-yl]pyridin-4-ylmethanone], the “% FI at 10 μM (% fluorescence inhibition)” value [1] was 32% and the “% Recovery (reversal of hyperalgesia)” value [2] was 84%.
